Experimental findings from US20260216109A1, “TREATMENT OF SKIN DISORDERS WITH SHORT CHAIN FATTY ACIDS” (Temple University-Of The Commonwealth System of Higher …, priority 2023, published 2026) are described below.

For one series, the system named is IL-22. Kind of series: Multiplex (MSD V-PLEX) cytokine release, InflammaSkin: IL-22. Format: cell-based, human. Conditions: Example 2; Day 7 supernatant; 1 μM Otezla or SCFA systemic, 0.05% Betamethasone topical; vs untreated InflammaSkin. Here is the method:
(§1) A total of 16 biopsies of 15 mm diameter were produced from a single donor. Two NativeSkin® models with 12/15 mm silicon rings were produced from the biopsies according to standard procedures in place, and cultured under cell culture conditions (37° C., 5% CO2, max. humidity) for 7 days with 2 mL of standard NativeSkin® medium renewed every day. Fourteen PSO-InflammaSkin® models with 12/15 mm silicon rings were produced by inducing in situ activation and Th17/Th1 polarization of skin resident T cells with a proprietary cocktail, and cultured under cell culture conditions (37° C., 5% CO2, max. humidity) for 7 days with 2 mL of PSO-InflammaSkin® culture medium renewed every day. […]
(§2) Human pro-inflammatory cytokines released in the supernatant were quantified using the V-PLEX Human IL-17A Kit (MesoScale Discovery, reference: K151RFD-1) and V-PLEX Human custom Pro-inflammatory. […]
(§3) Samples were diluted four times for plate 2 and two times for plate 1. Samples and standards were assessed in duplicate. Plates were read on MesoScale Discovery Quickpleax SQ 120 plate reader and values expressed in pg/mL.
(§4) A statistical analysis was performed. […] First, the distribution's normality of the two compared group was assessed. […] If the two distributions were normal, the homogeneity of variances was assessed using a Fisher test on the variances. […]

A further series relates to IL-31. Kind of series: Multiplex (MSD V-PLEX) cytokine release, InflammaSkin: IL-31. Type of series: cell-based, human. To be noted: Example 2; Day 7 supernatant; 1 μM Otezla or SCFA systemic; vs untreated InflammaSkin. Here is the method:
as §1, §2, §3, §4

A short description of series [1]: Body weight in IMQ-induced psoriasis model mice. Type of series: in vivo, mouse. The procedure: Body weight was determined daily in all mice over the whole period of each study. Oral treatment with either Apremilast (25 mg/kg BID) or SFA002 (fixed dose BID) started with the disease induction on day 0. Etanercept (10 mg/kg Q3D s.c.) served as a technical control. Healthy control and IMQ control group received no placebo treatment.

Series [2] deals with imiquimod (IMQ)-induced psoriasis model mice. Description: Back skin scaling, IMQ-induced psoriasis model in mice. Format: in vivo, mouse. To be noted: for skin scaling: Example 12. The procedure: Topical application of IMQ, a TLR7/8 ligand and potent immune activator induced and exacerbated psoriasis in mice. The mouse IMQ-induced psoriasis (IMQ Ps) model was initiated by a repeated topical application of Aldara© cream (containing 5% IMQ) over 6 consecutive days. Female Balb/c mice (9 weeks of age at reception, ordered with 20 g, Charles River, Sulzfeld, Germany; n=10 mice/group, exception healthy controls n=4) received daily a topical application of 62.5 mg of commercially available IMQ cream (5% Aldara©) on the beforehand (day −1) shaved (~2 cm×3 cm), depilated (Pilka© cream) back skin, and 7 mg on the outer right ear skin for 6 consecutive days, translating in a daily dose of approximately 3.5 mg IMQ. Healthy control mice were included in the study and were treated with vehicle cream (Vaseline; Bombastus-Werke AG) only instead of IMQ. Additionally, an IMQ disease control group was also included.
Disease Severity Score was evaluated on a daily base starting with the induction of psoriasis by IMQ application (day 0) until the end (day 6) of the study. The psoriasis severity on the back skin of the mice was evaluated by using a modified scoring system developed by van der Fits et al., based on the clinical PASI (psoriasis area and severity index) and takes skin erythema, scaling and skin thickening into account. Scoring was performed by the same lab technician throughout the experiment. Each parameter was scored independently on a scale from 0 to 3.
Before starting treatment on the day of disease induction (day 0), mice were randomized based on body weight to the respective group. To evaluate the anti-inflammatory efficacy of the two compounds in mouse IMQ psoriasis, mice were treated twice daily ([…] in sterile water; m/m/v) alone, with fixed dose of SCFA (in ddH2O) alone, […] dose of SCFA. Healthy and IMQ disease controls were orally treated in parallel with vehicle only. All treatments started with first application of IMQ on day 0.
Skin scaling, one of the disease severity score parameters, was evaluated in IMQ-treated mice (FIGS. 57-59).

The next series concerns K16. Description: Anti-K16 immunostaining of InflammaSkin models. Type of series: cell-based, human. To be noted: Example 1; Day 7; Day 1-6: 1 μM Otezla or SCFA (45 μg/mL Ca-propionate + 1 mM Ca-/Mg-butyrate) systemic, 0.05% Betamethasone topical. Here is the method: A total of 16 biopsies of 15 mm diameter were produced from a single donor. Two NativeSkin® models with 12/15 mm silicon rings were produced from the biopsies according to standard procedures in place, and cultured under cell culture conditions (37° C., 5% CO2, max. humidity) for 7 days with 2 mL of standard NativeSkin® medium renewed every day. Fourteen PSO-InflammaSkin® models with 12/15 mm silicon rings were produced by inducing in situ activation and Th17/Th1 polarization of skin resident T cells with a proprietary cocktail, and cultured under cell culture conditions (37° C., 5% CO2, max. humidity) for 7 days with 2 mL of PSO-InflammaSkin® culture medium renewed every day.
From Day 1 to Day 6, models were systemically treated with 1 μM Otezla or Short Chain Fatty Acids (SCFAs), or topically treated with positive control 0.05% Betamethasone
In these experiments, the SCFAs administered were 45 μg/mL of Ca-propionate and 1 mM mixture of salts (Ca-butyrate and Mg-butyrate).
At Day 7, supernatants were collected and stored at −80° C. and skin models of all conditions were carefully unmolded. Skin biopsies were re-punched to eliminate the area under the silicon ring, fixed in 10% buffered formalin and processed for paraffin wax embedding. […]

For `CCOc1cc([C@@H](CS(C)(=O)=O)N2C(=O)c3cccc(NC(C)=O)c3C2=O)ccc1OC` [Otezla, Apremilast], the IL-22 secretion result in the series with IL-22 is “significantly reduced”. In the series with IL-31, the IL-31 secretion result is “reduced IL-31 (FIG. 10 and FIG. 17), but it was not significantly different from untreated InflammaSkin® models”. The body weight loss result in series [1] (Example 4, Apremilast 25 mg/kg BID, SCFA fixed dose BID (120 + 2,146 mg/kg/day), oral) was “no effect on body weight loss”; in series [1] (Example 7, Apremilast 2.5, 5, 7 mg/kg BID, SCFA (120 + 1,100 mg/kg/day), alone or in combination, vs vehicle-treated IMQ disease controls) it was “no positive influence on body weight loss”; in series [1] (Example 9, Apremilast 25 mg/kg BID, SCFA fixed dose, alone or in combination, vs vehicle-treated IMQ disease controls) it was “no positive influence on body weight loss”; in series [1] (Example 12, Apremilast 12 or 25 mg/kg BID, fixed dose SCFA, alone or in combination, vs vehicle-treated IMQ disease controls), “no positive influence on body weight loss”. Besides, the “back skin scaling (desquamation) over time” value in series [2] (Example 9, Apremilast 25 mg/kg BID, SCFA fixed dose (120 mg/kg/day Ca-propionate + 1,100 mg/kg/day Ca-/Mg-butyrate), alone or combined, oral) is “able to inhibit the skin scaling from day 3 to day 5”. In addition, the “cumulative evaluation of skin scaling over the entire course of the study” value in series [2] (Example 9, Apremilast 25 mg/kg BID, SCFA fixed dose (120 + 1,100 mg/kg/day), alone or combined, p<0.01) was “significant and similar beneficial effects”. Besides, the skin scaling entry in series [2] (day 5 and day 6, Apremilast 25 mg/kg BID alone, or combined with fixed dose SCFA (60 + 1,100 mg/kg/day)) was “significantly inhibited skin scaling on day 5 (p<0.05) and day 6 (p<0.01)”; in series [2] (day 6, fixed dose SCFA alone, Apremilast 12 mg/kg BID alone, or both combined), “did not reach significance at day 6”. Also, the “K16 expression in the epidermis” value in the series with K16 is given as “decreased the expression of K16 in the epidermis”.
